In US11547681B2, “N-acylethanolamide derivatives and uses thereof” (ELIEM THERAPEUTICS, INC., priority 2016, dated 2023):
Blank lines part the entries; values can stand above or below the molecule they belong to.

Tests used:
[1] = Plasma stability (37° C., pH 7.4), rat; assay type: in vitro ADME, Sprague-Dawley rat; settings: for half-life at 1 μM: male, Sprague-Dawley, rat, plasma, read-out: Half-life; for % Remaining of Initial / % Remaining of Initial (n = 1), 0 min / % Remaining of Initial (n = 1), 15 min / % Remaining of Initial (n = 1), 30 min / % Remaining of Initial (n = 1), 60 min / % Remaining of Initial (n = 1), 120 min: rat plasma; for % Remaining of Initial: n = 1; for % Remaining of Initial (n = 1), 0 min: pH 7.4, 0 min; for % Remaining of Initial (n = 1), 15 min: pH 7.4, 15 min; for % Remaining of Initial (n = 1), 30 min: pH 7.4, 30 min; for % Remaining of Initial (n = 1), 60 min: pH 7.4, 60 min; for % Remaining of Initial (n = 1), 120 min: pH 7.4, 120 min; for % Remaining of Initial (n = 1): Rat plasma
Method: (§1) Studies were carried out in mixed-gender human plasma (Lot #GLP530-5), male Sprague-Dawley rat (Lot #RAT297944, RAT313140), male CD-1 mouse (Lot #MSE237700), and male Beagle dog (Lot #BGL87670, BGL82614), collected on sodium heparin. Plasma was adjusted to pH 7.4 prior to initiating the experiments. DMSO stocks were first prepared for the test articles. Aliquots of the DMSO solutions were dosed into 700 μL of plasma, which had been pre-warmed to 37° C., at a final test article concentration of 1 μM. […] Samples were stored at 4° C. until the end of the experiment. After the final time point was sampled, the plate was mixed and then centrifuged at 3,000 rpm for 10 minutes. Calibration standards were prepared in matched matrix. […] Analytical conditions are outlined in Appendix 8-1.
as §1, with “#AS1650-2),” for “#GLP530-5),”, “#RAT297944),” for “#RAT297944, RAT313140),”, “CD-I” for “CD-1”, “#BGL91384),” for “#BGL87670, BGL82614),”, “10-1.” for “8-1.”
Studies were carried out in mixed-gender human plasma (Lot #AS1650-2), male Sprague-Dawley rat (Lot #RAT297944), male CD-1 mouse (Lot #MSE237700), and male Beagle dog (Lot #BGL91384), collected on sodium heparin. Plasma was adjusted to pH 7.4 prior to initiating the experiments. DMSO stocks were first prepared for test articles. […] Samples were stored at 4° C. until the end of experiment. After the final time point was sampled, the plate was mixed and then centrifuged at 3,000 rpm for 10 minutes. Calibration standards were prepared in matched matrix. […] Analytical conditions are outlined in Appendix 13-1.
Studies were carried out in mixed-gender human plasma (Lot #AS 1650-2), male Sprague-Dawley rat (Lot #RAT320835), male CD-1 mouse (Lot #MSE260693), and 6 male Beagle dog (Lot #BGL91384), on sodium heparin. Plasma was adjusted to pH 7.4 prior to initiating the experiments. DMSO stocks were first prepared for the test articles. Aliquots of the DMSO solutions were dosed into 700 μL of plasma, which had been pre-warmed to 37° C., at a final test article concentration of 1 μM. […] Samples were stored at 4° C. until the end of the experiment. After the final time point was sampled, the plate was mixed and then centrifuged at 3,000 rpm for 10 minutes. Calibration standards were prepared in matched matrix. […] Analytical conditions are outlined in Appendix 17-1.

[2] = in vitro; settings: both, human; for Measured concentration of PEA (analyte) / % Remaining of Initial / Concentration (μM) of analyte PEA, 0 min / Concentration of analyte I-9 / Concentration of analyte PEA / Concentration (μM) of analyte PEA, 10 min / Concentration (μM) of analyte PEA, 20 min / Concentration (μM) of analyte PEA, 30 min / Concentration (μM) of analyte PEA, 60 min / % Remaining of Initial (n = 1) / % Remaining of Initial (n = 1), 0 min / % Remaining of Initial (n = 1), 10 min / % Remaining of Initial (n = 1), 20 min / % Remaining of Initial (n = 1), 30 min / % Remaining of Initial (n = 1), 60 min / Concentration, analyte PEA: 1 μM
Method: The reaction mixture, minus cofactors, was prepared as described below. The test article was added into the reaction mixture at a final concentration of 1 μM. […] An aliquot of the reaction mixture (without cofactor cocktail) was equilibrated in a shaking water bath at 37° C. for 3 minutes. The reaction was initiated by the addition of cofactor cocktail, and the mixture was incubated in a shaking water bath at 37° C. Aliquots (100 μL) were withdrawn at 0, 10, 20, 30, and 60 minutes. All samples were immediately combined with 400 uL of icecold 50/50 acetonitrile/H2O containing 0.1% formic acid and internal standard to terminate the reaction. The samples were then mixed and centrifuged to precipitate proteins. Calibration standards were prepared in matched matrix. All samples and standards were assayed by LC-MS/MS using electrospray ionization for both the dosed prodrug I-9 and the expected drug (PEA). Analytical conditions are outlined in Appendix 4-1. The test article concentration at each time point was compared to the test article concentration at time 0 to determine the percent remaining at each time point. Half-lives were calculated using GraphPad software, fitting to single-phase exponential decay equation.
(§2) Reaction mixture, minus cofactors, was prepared as described below. Test article was added into the reaction mixture at a final concentration of 1 μM. […] An aliquot of the reaction mixture (without cofactor cocktail) was equilibrated in a shaking water bath at 37° C. for 3 minutes. The reaction was initiated by the addition of cofactor cocktail, and the mixture was incubated in a shaking water bath at 37° C. Aliquots (100 μL) were withdrawn at 0, 10, 20, 30, and 60 minutes. Test article samples were immediately combined with 300 μL of ice-cold acetonitrile containing 1% formic acid. Control samples were immediately combined with 400 μL of ice-cold 50/50 acetonitrile (ACN)/dH2O containing 0.1% formic acid and internal standard to terminate the reaction. Samples were then mixed and centrifuged to precipitate proteins. Calibration standards were prepared in matched matrix. Samples and standards were assayed by LC-MS/MS using electrospray ionization for both the dosed prodrug and the expected drug (PEA). Analytical conditions are outlined in Appendix 8-1. Test article concentration at each time point was compared to test article concentration at time 0 to determine the percent remaining at each time point. Halflives were calculated using GraphPad software, fitting to a single-phase exponential decay equation.
as §2, with “for 5” for “for 3”, “minutes. Reaction” for “minutes. The reaction”, “and” for “and the”, “both” for “both the”, “Appendix 10-1.” for “Appendix 8-1.”
Reaction mixture, minus cofactors, was prepared as described below.

[3] = pH 7.4, rat plasma, test article 1 μM, 37° C., pH 7.4

- half-life at 1 μM ([1]; pH 7.4, rat plasma): < 1 min
- % Remaining of Initial ([1]; 0 min, 1 μM): 100%
- % Remaining of Initial ([1]; 15 min, 1 μM): <1.0%
- % Remaining of Initial ([1]; 30 min, 1 μM): <1.0%
- % Remaining of Initial ([1]; 60 min, 1 μM): <1.0%
- % Remaining of Initial ([1]; 120 min, 1 μM): <1.0%
- Measured concentration of PEA (analyte) ([2]; 0 min): 0.021 µM
- Measured concentration of PEA (analyte) ([2]; 10 min): 0.32 µM
- Measured concentration of PEA (analyte) ([2]; 20 min): 0.39 µM
- Measured concentration of PEA (analyte) ([2]; 30 min): 0.38 µM
- Measured concentration of PEA (analyte) ([2]; 60 min): 0.38 µM
- % Remaining of Initial ([2]; s9, 0 h): 100%
- % Remaining of Initial ([2]; s9, 10 min): 31%
- % Remaining of Initial ([2]; s9, 20 min): 7.0%
- % Remaining of Initial ([2]; s9, 0.5 h): 1.8%
- % Remaining of Initial ([2]; s9, 1 h): <1.0%
- microsomal CLint at 1 μM ([2]; s9, CLint): > 69.3 µL/min/mg
- half-life at 1 μM ([2]; s9, Half-life): < 10 min
Structure (SMILES): CCCCCCCCCCCCCCCC(=O)NCCOC(=O)CCC(=O)OC(CO)CO [Compound I-8]

- half-life at 1 μM [1, 3]: 2.8 min
- % Remaining of Initial (n = 1), 0 min ([1]; test article 1 μM, 37° C.): 100%
- % Remaining of Initial (n = 1), 15 min ([1]; test article 1 μM, 37° C.): 2.5%
- % Remaining of Initial (n = 1), 30 min ([1]; test article 1 μM, 37° C.): <1.0%
- % Remaining of Initial (n = 1), 60 min ([1]; test article 1 μM, 37° C.): <1.0%
- % Remaining of Initial (n = 1), 120 min ([1]; test article 1 μM, 37° C.): <1.0%
- Concentration (μM) of analyte PEA, 0 min ([2]; 0 min): 0.048 µM
- Concentration of analyte I-9 ([2]; 0 min): 610 nM
- Concentration of analyte PEA ([2]; 0 min): 210 nM
- Concentration (μM) of analyte PEA, 10 min ([2]; 10 min): 0.18 µM
- Concentration of analyte I-9 ([2]; 10 min): 360 nM
- Concentration of analyte PEA ([2]; 10 min): 500 nM
- Concentration (μM) of analyte PEA, 20 min ([2]; 20 min): 0.23 µM
- Concentration of analyte I-9 ([2]; 20 min): 99 nM
- Concentration of analyte PEA ([2]; 20 min): 690 nM
- Concentration (μM) of analyte PEA, 30 min ([2]; 30 min): 0.22 µM
- Concentration of analyte I-9 ([2]; 30 min): 29 nM
- Concentration of analyte PEA ([2]; 30 min): 650 nM
- Concentration (μM) of analyte PEA, 60 min ([2]; 60 min): 0.18 µM
- Concentration of analyte I-9 ([2]; 60 min): 4.3 nM
- Concentration of analyte PEA ([2]; 60 min): 660 nM
- % Remaining of Initial (n = 1) ([2]; s9, 0 h): 100%
- % Remaining of Initial (n = 1), 0 min ([2]; s9, 0 h): 100%
- % Remaining of Initial (n = 1) ([2]; s9, 10 min): 59%
- % Remaining of Initial (n = 1), 10 min ([2]; s9, 10 min): 28%
- % Remaining of Initial (n = 1) ([2]; s9, 20 min): 16%
- % Remaining of Initial (n = 1), 20 min ([2]; s9, 20 min): 5.7%
- % Remaining of Initial (n = 1), 30 min ([2]; s9, 0.5 h): 1.2%
- % Remaining of Initial (n = 1) ([2]; s9, 1 h): <1.0%
- % Remaining of Initial (n = 1), 60 min ([2]; s9, 1 h): <1.0%
- microsomal CLint at 1 μM ([2]; s9, CLint): > 69.3 µL/min/mg
- microsomal CLint at 1 μM ([2]; s9, CLint (mL/min/mg protein)): 131 µL/min/mg
- microsomal CLint at 1 μM ([2]; s9, CLint, calculated value in parentheses): 75.3 µL/min/mg
- half-life at 1 μM ([2]; s9, Half-Life, calculated value in parentheses): 9.2 min
- half-life at 1 μM ([2]; s9, Half-life): < 10 min
- half-life at 1 μM ([2]; s9, Half-life (min)): 5.3 min
Structure (SMILES): CCCCCCCCCCCCCCCC(=O)NCCOC(=O)CCC(=O)OCC(O)CO (stereo not drawn) [Compound I-9]

- half-life at 1 μM [1, 3]: 5.6 min
- % Remaining of Initial (n = 1), 0 min ([1]; test article 1 μM, 37° C.): 100%
- % Remaining of Initial (n = 1), 15 min ([1]; test article 1 μM, 37° C.): 9.0%
- % Remaining of Initial (n = 1), 30 min ([1]; test article 1 μM, 37° C.): 23%
- % Remaining of Initial (n = 1), 60 min ([1]; test article 1 μM, 37° C.): <1.0%
- % Remaining of Initial (n = 1), 120 min ([1]; test article 1 μM, 37° C.): <1.0%
- Concentration (μM) of analyte PEA, 0 min ([2]; 0 min): 0.018 µM
- Concentration (μM) of analyte PEA, 10 min ([2]; 10 min): 0.13 µM
- Concentration (μM) of analyte PEA, 20 min ([2]; 20 min): 0.20 µM
- Concentration (μM) of analyte PEA, 30 min ([2]; 30 min): 0.21 µM
- Concentration (μM) of analyte PEA, 60 min ([2]; 60 min): 0.18 µM
- % Remaining of Initial (n = 1), 0 min ([2]; s9, 0 h): 100%
- % Remaining of Initial (n = 1), 10 min ([2]; s9, 10 min): 4.1%
- % Remaining of Initial (n = 1), 20 min ([2]; s9, 20 min): 1.2%
- % Remaining of Initial (n = 1), 30 min ([2]; s9, 0.5 h): <1.0%
- % Remaining of Initial (n = 1), 60 min ([2]; s9, 1 h): <1.0%
Structure (SMILES): CCCCCCCCCCCCCCCC(=O)NCCOC(=O)CCC(=O)OCC(COC(=O)CCC)OC(=O)CCC (stereo not drawn) [Compound I-11]

- % Remaining of Initial (n = 1) ([1]; 0 min, 1 μM): 100%
- % Remaining of Initial (n = 1) ([1]; 15 min, 1 μM): 69%
- % Remaining of Initial (n = 1) ([1]; 30 min, 1 μM): 76%
- % Remaining of Initial (n = 1) ([1]; 60 min, 1 μM): 36%
- % Remaining of Initial (n = 1) ([1]; 120 min, 1 μM): 5.1%
- half-life at 1 μM ([1]; pH 7.4, Rat plasma, 1 μM): 42 min
- Concentration, analyte PEA ([2]; 0 min): 0 nM
- Concentration, analyte PEA ([2]; 10 min): 10 nM
- Concentration, analyte PEA ([2]; 20 min): 14 nM
- Concentration, analyte PEA ([2]; 30 min): 18 nM
- Concentration, analyte PEA ([2]; 60 min): 31 nM
- % Remaining of Initial (n = 1) ([2]; s9, 0 h): 100%
- % Remaining of Initial (n = 1) ([2]; s9, 10 min): 86%
- % Remaining of Initial (n = 1) ([2]; s9, 20 min): 86%
- % Remaining of Initial (n = 1) ([2]; s9, 0.5 h): 86%
- % Remaining of Initial (n = 1) ([2]; s9, 1 h): 59%
- microsomal CLint at 1 μM ([2]; s9, CLint): < 11.6 µL/min/mg
- microsomal CLint at 1 μM ([2]; s9, CLint, calculated (in parentheses)): 7.57 µL/min/mg
- half-life at 1 μM ([2]; s9, Half-life): > 60 min
- half-life at 1 μM ([2]; s9, Half-life, calculated (in parentheses)): 92 min
Structure (SMILES): CCCCC/C=C\C/C=C\CCCCCCCC(=O)OCC(COC(=O)CCC(=O)OCCNC(=O)CCCCCCCCCCCCCCC)OC(=O)CCCCCCC/C=C\C/C=C\CCCCC (stereo not drawn) [Compound I-13]
